Test results as given in US4031218A, “7-(2,3-Dihydroxypropyl-1,3-di-n-propylxanthine and a pharmaceutical composition containing same useful as a bronchial muscle relaxant” (Mallinckrodt, Inc., priority 1976, dated 1977).

Experiments:
[1] = system: guinea pig tracheal strip; assay: Isolated trachea preparation (in vitro tracheal strip), pilocarpine-contracted; format: cell-based; settings: relative to theophylline = 1.00, molar basis
Description: With the exception of theophylline, all compounds were administered as the free base dissolved or suspended in appropriate aqueous vehicles. […] The ethylenediamine portion of the molecule is pharmacologically inert, but renders solubility and convenience of use (Simons et al., S. Med. Journ. 68:802, 1975). For the purpose of comparison, aminophylline was considered to contain 80% free theophylline by weight (Piafsky and Ogilvie, New England J. Med. 292: 1218, 1975). Final comparisons were always based on the calculated dose of theophylline. Because of obvious differences in molecular weights, all compounds were compared on a molar basis rather than on absolute weight.
1. Isolated Trachea Preparation
The in vitro bronchodilator activity of each compound was estimated on the spirally cut guinea pig tracheal strip preparation as described by Constantine, (J. Pharm. Pharmacol. 17:384, 1965). Large Camm English Short Hair male guinea pigs (800-1200 gm.) were employed in order to obtain three spiral tracheal strips from one animal. Strips were suspended in 50 ml. tissue baths containing modified Krebs-Henseleit solution at 38° C. and aerated with 95% O2 /5% CO2. Pilocarpine HCl, 1 mg/liter, was added to the solution to maintain a sustained contraction and to promote rapid recovery of the muscle. A Grass FT 0.03 force displacement transducer was used to electronically record muscle response. Concentration-relaxation relationships were obtained for each compound by logarithmically increasing bath concentration until maximum (100%) relaxation was observed. Tissues were washed between doses and allowed 30 minutes to recover. Linear regression analysis of percent response vs. log of bath concentration allowed calculation of a slope and EC50 value (concentration producing 50% of maximum relaxation) for each compound. Each dose of each compound was tested a minimum of six times.

[2] = Oral LD50 / oral PD50 ratio in guinea pigs; settings: guinea pig, in vivo, median lethal dose / median protective dose, relative to theophylline, read-out: Oral LD50 / Oral PD50 (G. Pig), relative
Description: where C is the average control preconvulsive time and T is the test preconvulsive time after compound administration, both in seconds. Animals with control preconvulsive times greater than 2 minutes were not used and if test preconvulsive time was longer than 10 minutes, 100% protection was arbitrarily assumed. The dose of each compound causing 50% protection (PD50) was calculated by the method of Litchfield and Wilcoxon (J. Pharmacol. Exp. Ther. 96:99, 1949).
The PD50 of each experimental compound was determined after both intraperitoneal and oral administration. A minimum of 3 dose levels and 6 animals per dose were employed to obtain meaningful dose-response data. Protection was assessed 15-20 minutes after intraperitoneal injection and 35-40 minutes after oral gavage with a flexible plastic tube. Animals were fasted overnight prior to oral dosing. All compounds were administered in aqueous solution in concentrations commensurate to a proper volume dose. Guinea pigs were utilized between 1 and 3 times but no animal received the same compound twice in succession with a minimum of 3 days rest between doses.
2. Oral LD50 in Guinea Pigs
The acute median lethal dose of each compound after oral administration was also determined in guinea pigs. Camm English Short Hair albino guinea pigs with sexes equally represented and ranging in weight from 255 to 311 gm. were used. A minimum of six animals per dose level were employed. Oral dosing was accomplished with a flexible tube inserted into the stomach. All guinea pigs were fasted overnight. […] The other compounds were dissolved in distilled water. Following administration of the appropriate doses, acute responses and lethalities were observed and LD50 values were calculated by the method of Litchfield and Wilcoxon (J. Pharmacol. Exp. Ther. 96:99, 1949).

dog hind limb = assay: Dog hind limb perfusion preparation (vasodilator); format: in vivo; settings: intra-arterial; relative to theophylline, molar basis
Source text: 1. Dog Hind Limb Perfusion Preparation
A total of 12 adult mongrel dogs of either sex were used to assess the direct intra-arterial dilating capacity of the five experimental compounds. […] This was accomplished with a Harvard Variable Speed Peristaltic Pump after proximal and distal cannualtion of the femoral artery. Changes in arterial vascular resistance were reflected as changes in perfusion pressure as measured from a T-tube on the distal side of the pump. Mean systemic arterial pressure was also recorded from the contralateral femoral artery. Drug solutions, dissolved in saline, were injected into the arterial blood supply immediately prior to entering the cannulated distal artery. Logarithmically increasing doses were given at 10-minute intervals and responses were recorded.

isolated rabbit heart = assay: Isolated rabbit heart preparation (Langendorff); format: cell-based; settings: mean for myocardial contractile force, heart rate, coronary flow; relative to theophylline
Description: 2. Isolated Rabbit Heart Preparation
In-vitro cardiodynamic activity of each compound except dyphylline was determined on the spontaneously beating isolated rabbit heart by the Langendorff method as modified by Anderson and Craver (J. Pharmacol. Exp. Ther., 93:135, 1948). After securing the extracted heart's ascending aorta to the apparatus, the coronaries were continuously perfused with aerated Chenoweth's solution (Chenoweth and Koelle, J. Lab. Clin. 31:600, 1946) maintained at a constant pressure-head and temperature of 38° C. The effects of logarithmically increasing doses of each compound were determined on contractile force, heart rate, and coronary flow. Drugs were dissolved in minimal volumes of Chenoweth's solution and injected into the downspout containing perfusate at 5-10 minute intervals.

mice = assay: Voluntary motor activity in mice (CNS stimulation); format: in vivo, male albino Swiss mice; settings: for CNS Activity, I.P. Mice / CNS Activity, I.P. Mice, change: estimated at HBD; for I.P. CNS Stimulation (Mice), relative molar activity: relative to theophylline, molar basis; for CNS Activity, I.P. Mice, change: voluntary motor activity
Description: F. Voluntary Motor Activity Studies in Mice In an attempt to quantitatively assess central nervous system activity, each compound was evaluated for its influence on voluntary motor activity in mice according to the method described by Dews (British J. Pharmacol. 8:46, 1953). Three cylindrical actophotometer cages were utilized simultaneously, each with six light beams and six photoelectric cells. Individual digital counters were connected to each activity cage. Male albino Swiss mice with weights ranging between 19 and 24 gm were used throughout. Compounds were dissolved in distilled water and were injected intraperitoneally in logarithmically spaced doses to groups of five mice, three groups per dose level. Control groups received saline.

[3] = Summary of relative molar activities (means and therapeutic efficacy); settings: for Therapeutic Efficacy: mean bronchodilator (therapeutic) activity divided by mean acute toxic and side effect activity; for Mean acute toxicity and side effect activity (relative molar): mean of acute toxicity and side effect lines of Table I; for Mean acute toxicity and side effect activity (relative molar) / Mean bronchodilator activity (relative molar): relative to theophylline; for Mean bronchodilator activity (relative molar): mean of bronchodilator lines of Table I
Source text: ^g - Mean bronchodilator (therapeutic) activity divided by mean acute

human bronchodilator = assay: Estimated human bronchodilator dose equivalent to recommended theophylline dose; settings: based on recommended theophylline dose and relative bronchodilator activities
Source text: Experimental results are summarized in Table I wherein pharmacologic and toxicologic activities relative to that of theophylline are expressed on a molar basis.
^a - Dose: Based on the recommended dose for theophylline and the
relative activities in the bronchodilator experiments.

Bronchodilator activity = settings: compared with theophylline
dogs = assay: Acute intravenous diuretic evaluation in dogs; settings: for Diuretic Activity, I.V. Dogs: estimated at HBD; for I.V. Diuretic (Dogs), relative molar activity: relative to theophylline, molar basis
Description: Acute Intravenous Evaluation in Dogs
Compounds were tested in two dogs each. Animals were initially hydrated with 30 ml/kg of water, orally; then anesthetized with pentobarbital sodium, 30-35 mg/kg i.v. One femoral vein was cannulated and a constant intravenous infusion of warm saline (3 ml/min.) was begun and continued throughout the experiment. The contralateral femoral vein was also cannulated for intravenous drug administration. Urine was directly collected from bilateral ureter cannulae. After a 20-minute control collection period, the first dose of the appropriate compound was injected and urine was collected at 20-minute intervals for a period of one hour. This procedure was repeated for two additional doses of the same compound. Urine volume, pH, and sodium and potassium levels were determined for each 20-minute collection period and sums were obtained for the one-hour period after each dose. Test results, reported as successive changes in each parameter, were compared accordingly.

[4] = prior art statement; cited from earlier work

For CCCn1c(=O)c2c(ncn2CC(O)CO)n(CCC)c1=O (centres unmarked) [Compound V, 7-(2,3-dihydroxypropyl)-1,3-di-n-propylxanthine], the “Bronchodilator activity, In-Vitro (Tracheal Strip), relative molar activity” value [1] was 0.99, the selectivity ratio [2] was 3.75 and the “Vasodilator, HLPP (Dogs), relative molar activity” value (dog hind limb) was 0.40. The “In-Vitro; MCF, HR, CF (Rabbit Heart), mean relative molar activity” value (shortened to “In-Vitro; MCF … mean relative molar activity”) (isolated rabbit heart) was 0.93, the “CNS Activity, I.P. Mice” value (mice) was “None” and the “I.P. CNS Stimulation (Mice), relative molar activity” value (mice) was 0.30. For the same molecule, the “CNS Activity, I.P. Mice, change” value (mice) was -1 %Δ, the “Therapeutic Efficacy” value [3] was 2.51 and the “Mean acute toxicity and side effect activity (relative molar)” value [3] was 0.70. For the same molecule, the “Mean bronchodilator activity (relative molar)” value [3] was 1.76, the “Estimated Human Bronchodilator Dose (HBD), per 70 kg” value (human bronchodilator) was 299 mg/70 kg and the “Estimated Human Bronchodilator Dose (HBD), per kg” value (human bronchodilator) was 4.3 mg/kg. For the same molecule, the “Bronchodilator potency in words” value (Bronchodilator activity) was “comparable to theophylline as a bronchodilator”, the “Diuretic Activity, I.V. Dogs” value (dogs) was “Mild” and the “I.V. Diuretic (Dogs), relative molar activity” value (dogs) was 0.59.
For CCCn1c(=O)c2c(ncn2CC(C)O)n(CCC)c1=O (centres unmarked) [III, 7-(2-hydroxypropyl) 1,3-di-n-propylxanthine], the “Bronchodilator activity, In-Vitro (Tracheal Strip), relative molar activity” value [1] was 1.86, the selectivity ratio [2] was 5.43 and the “Vasodilator, HLPP (Dogs), relative molar activity” value (dog hind limb) was 0.76. The “In-Vitro; MCF … mean relative molar activity” value (isolated rabbit heart) was 1.40, the “CNS Activity, I.P. Mice” value (mice) was “Severe” and the “I.P. CNS Stimulation (Mice), relative molar activity” value (mice) was 1.73. For the same molecule, the “CNS Activity, I.P. Mice, change” value (mice) was -60 %Δ, the “Therapeutic Efficacy” value [3] was 0.09 and the “Mean acute toxicity and side effect activity (relative molar)” value [3] was 36.55. For the same molecule, the “Mean bronchodilator activity (relative molar)” value [3] was 3.46, the “Estimated Human Bronchodilator Dose (HBD), per 70 kg” value (human bronchodilator) was 99 mg/70 kg and the “Estimated Human Bronchodilator Dose (HBD), per kg” value (human bronchodilator) was 1.4 mg/kg. The “Bronchodilator potency in words” value (Bronchodilator activity) was “more potent bronchodilators than theophylline”, the “Side effects / tolerance in words (prior art)” value (from here on “Side effects / tolerance”) [4] was “well tolerated” and the “Diuretic Activity, I.V. Dogs” value (dogs) was “Mild”. The “I.V. Diuretic (Dogs), relative molar activity” value (dogs) was 0.50.
For CCCn1c(=O)c2c(ncn2CCCO)n(CCC)c1=O [IV, 7-(3-hydroxypropyl)-1,3-di-n-propylxanthine], the “Bronchodilator activity, In-Vitro (Tracheal Strip), relative molar activity” value [1] was 2.05, the selectivity ratio [2] was 3.57 and the “Vasodilator, HLPP (Dogs), relative molar activity” value (dog hind limb) was 1.06. The “In-Vitro; MCF … mean relative molar activity” value (isolated rabbit heart) was 1.81, the “CNS Activity, I.P. Mice” value (mice) was “Moderate” and the “I.P. CNS Stimulation (Mice), relative molar activity” value (mice) was 0.48. The “CNS Activity, I.P. Mice, change” value (mice) was -17 %Δ, the “Therapeutic Efficacy” value [3] was 0.72 and the “Mean acute toxicity and side effect activity (relative molar)” value [3] was 2.60. For the same molecule, the “Mean bronchodilator activity (relative molar)” value [3] was 1.87, the “Estimated Human Bronchodilator Dose (HBD), per 70 kg” value (human bronchodilator) was 347 mg/70 kg and the “Estimated Human Bronchodilator Dose (HBD), per kg” value (human bronchodilator) was 5.0 mg/kg. The “Bronchodilator potency in words” value (Bronchodilator activity) was “more potent bronchodilators than theophylline”, the “Side effects / tolerance” value [4] was “well tolerated” and the “Diuretic Activity, I.V. Dogs” value (dogs) was “Mild”. The “I.V. Diuretic (Dogs), relative molar activity” value (dogs) was 0.45.
For Cn1c(=O)c2c(ncn2CC(O)CO)n(C)c1=O (centres unmarked) [Compound II, 7-(2,3-dihydroxypropyl) 1,3-dimethylxanthine], the “Bronchodilator activity, In-Vitro (Tracheal Strip), relative molar activity” value [1] was 0.16, the selectivity ratio [2] was 2 and the “Vasodilator, HLPP (Dogs), relative molar activity” value (dog hind limb) was 0.06. The “I.P. CNS Stimulation (Mice), relative molar activity” value (mice) was 0.18, the “Therapeutic Efficacy” value [3] was 2.31 and the “Mean acute toxicity and side effect activity (relative molar)” value [3] was 0.26. For the same molecule, the “Mean bronchodilator activity (relative molar)” value [3] was 0.60, the “Estimated Human Bronchodilator Dose (HBD), per 70 kg” value (human bronchodilator) was 2353 mg/70 kg and the “Estimated Human Bronchodilator Dose (HBD), per kg” value (human bronchodilator) was 33.6 mg/kg. For the same molecule, the “Side effects / tolerance” value [4] was “few of the usual theophylline-like side effects”, the “Diuretic Activity, I.V. Dogs” value (dogs) was “Moderate” and the “I.V. Diuretic (Dogs), relative molar activity” value (dogs) was 0.26.
